The term inhibition denotes the drop in the measured response relative to a control, in per cent.

This passage reports inhibition results from ChEMBL document CHEMBL2169741, “Analysis of the discriminative inhibition of mammalian digestive lipases by 3-phenyl substituted 1,3,4-oxadiazol-2(3H)-ones” (Eur J Med Chem, 2012).

Assay [1] addresses T1, Gastric triacylglycerol lipase (Canis lupus familiaris) (UniProt P80035).
T1 sequence (whole entry): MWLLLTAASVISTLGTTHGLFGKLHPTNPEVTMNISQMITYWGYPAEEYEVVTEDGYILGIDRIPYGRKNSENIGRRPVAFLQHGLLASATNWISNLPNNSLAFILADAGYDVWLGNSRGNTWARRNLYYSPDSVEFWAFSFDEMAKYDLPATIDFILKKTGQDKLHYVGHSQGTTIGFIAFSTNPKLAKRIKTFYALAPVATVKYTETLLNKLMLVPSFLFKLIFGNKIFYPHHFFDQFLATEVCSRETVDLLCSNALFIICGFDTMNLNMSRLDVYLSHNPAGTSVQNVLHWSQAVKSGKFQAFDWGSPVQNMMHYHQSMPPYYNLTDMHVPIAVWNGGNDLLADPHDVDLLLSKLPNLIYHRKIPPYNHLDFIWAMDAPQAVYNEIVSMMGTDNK
Briefly: Inhibition of recombinant DGL expressed in transgenic maize at 20 molar excess after 30 mins in presence of NaTDC.

The target of assay [2] is T2, Pancreatic lipase-related protein 2 (Cavia porcellus) (UniProt P81139).
T2 sequence (whole entry): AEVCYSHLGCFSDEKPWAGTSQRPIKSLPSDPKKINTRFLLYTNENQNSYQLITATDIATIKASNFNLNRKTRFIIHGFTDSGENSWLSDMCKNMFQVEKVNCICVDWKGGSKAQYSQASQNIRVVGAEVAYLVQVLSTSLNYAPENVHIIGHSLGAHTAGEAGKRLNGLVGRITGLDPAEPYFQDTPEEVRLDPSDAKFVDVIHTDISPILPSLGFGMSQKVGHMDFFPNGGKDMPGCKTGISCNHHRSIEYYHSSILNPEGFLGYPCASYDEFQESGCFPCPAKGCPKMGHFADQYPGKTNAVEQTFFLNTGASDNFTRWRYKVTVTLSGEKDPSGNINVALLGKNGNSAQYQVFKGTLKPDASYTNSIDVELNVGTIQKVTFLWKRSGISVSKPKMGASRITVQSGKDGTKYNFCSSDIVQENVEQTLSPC
The assay can be described thus: Inhibition of recombinant GPLRP2 expressed in Aspergillus oryzae at 2 molar excess after 30 mins in presence of NaTDC.

The target of assay [3] is T3, Pancreatic lipase-related protein 2 (Homo sapiens) (UniProt P54317).
T3 sequence (whole entry): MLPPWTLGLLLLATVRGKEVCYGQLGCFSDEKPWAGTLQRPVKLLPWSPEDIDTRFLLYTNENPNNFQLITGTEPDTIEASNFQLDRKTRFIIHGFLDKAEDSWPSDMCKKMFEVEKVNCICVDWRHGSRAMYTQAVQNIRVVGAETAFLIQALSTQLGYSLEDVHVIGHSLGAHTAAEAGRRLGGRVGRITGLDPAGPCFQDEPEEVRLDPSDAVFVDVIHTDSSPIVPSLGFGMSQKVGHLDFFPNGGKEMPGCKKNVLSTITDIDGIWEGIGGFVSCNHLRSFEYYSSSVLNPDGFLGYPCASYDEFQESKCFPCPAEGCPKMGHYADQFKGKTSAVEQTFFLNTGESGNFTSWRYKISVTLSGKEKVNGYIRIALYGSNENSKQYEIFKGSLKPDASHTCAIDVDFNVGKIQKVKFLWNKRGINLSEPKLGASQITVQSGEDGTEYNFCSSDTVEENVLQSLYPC
The assay can be described thus: Inhibition of recombinant HPLRP2 expressed in Pichia pastoris at 2 molar excess after 30 mins in presence of NaTDC.

In assay [4] the target is T4, Pancreatic triacylglycerol lipase (Sus scrofa) (UniProt P00591).
T4 sequence (whole entry): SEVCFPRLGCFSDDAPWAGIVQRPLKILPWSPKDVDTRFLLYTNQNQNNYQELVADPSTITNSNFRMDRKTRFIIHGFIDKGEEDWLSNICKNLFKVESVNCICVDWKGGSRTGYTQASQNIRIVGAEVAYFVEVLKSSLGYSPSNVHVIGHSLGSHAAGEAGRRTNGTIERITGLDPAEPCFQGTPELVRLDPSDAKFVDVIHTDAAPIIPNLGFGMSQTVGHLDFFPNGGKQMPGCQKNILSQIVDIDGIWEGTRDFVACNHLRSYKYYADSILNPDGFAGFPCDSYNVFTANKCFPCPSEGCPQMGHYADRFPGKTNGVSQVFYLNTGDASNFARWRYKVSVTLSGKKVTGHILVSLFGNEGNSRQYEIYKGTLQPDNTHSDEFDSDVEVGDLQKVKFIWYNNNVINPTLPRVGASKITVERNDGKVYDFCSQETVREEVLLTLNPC
The assay can be described thus: Inhibition of PPL at 400 molar excess after 30 mins in presence of NaTDC.

In assay [5] the target is T4, Pancreatic triacylglycerol lipase (Sus scrofa). The assay can be described thus: Inhibition of PPL at 100 molar excess after 30 mins in presence of NaTDC.
In assay [6] the target is T5, Pancreatic triacylglycerol lipase (Homo sapiens) (UniProt P16233).
T5 sequence (whole entry): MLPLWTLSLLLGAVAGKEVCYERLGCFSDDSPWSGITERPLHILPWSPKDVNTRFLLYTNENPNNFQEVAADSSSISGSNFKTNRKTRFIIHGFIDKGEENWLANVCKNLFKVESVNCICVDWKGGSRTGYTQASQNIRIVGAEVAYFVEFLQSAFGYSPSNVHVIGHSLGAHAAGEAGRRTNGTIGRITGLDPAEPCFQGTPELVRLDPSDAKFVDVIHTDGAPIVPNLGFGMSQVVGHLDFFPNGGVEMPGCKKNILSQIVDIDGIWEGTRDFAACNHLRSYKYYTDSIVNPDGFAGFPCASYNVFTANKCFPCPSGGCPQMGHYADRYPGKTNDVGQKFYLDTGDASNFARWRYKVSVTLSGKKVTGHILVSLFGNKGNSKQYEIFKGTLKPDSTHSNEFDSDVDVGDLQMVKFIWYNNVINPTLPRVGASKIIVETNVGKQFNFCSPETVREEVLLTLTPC
The assay can be described thus: Inhibition of recombinant HPL expressed in Pichia pastoris at 100 molar excess after 30 mins in presence of NaTDC.

Calls of active or inactive are those of the source. The rule behind the calls is not given here.

As to `CCCCCCCCCCC[C@@H](C[C@@H]1OC(=O)[C@H]1CCCCCC)OC(=O)[C@H](CC(C)C)NC=O`, the inhibition in assay [1] amounted to 56.3%; in assay [2], 82.7%; in assay [3], 83.6%; in assay [4], 90.9%; in assay [5] it was 85.5%; in assay [6], 77.2%.

Consider `COc1nn(-c2ccccc2)c(=O)o1`, for which the inhibition in assay [1] was found to be 6.6%; in assay [2], 77.6%; in assay [3] it was 49.9%; in assay [4], 35.8%; in assay [5], 10.7%. Also, the inhibition entry in assay [6] is “inactive”.

Consider `COc1nn(-c2cccc(Oc3ccccc3)c2)c(=O)o1`, for which the inhibition in assay [1] is 81.9%; in assay [2], 80.1%; in assay [3] it was 63.7%; in assay [4], 87.7%; in assay [5], 85.1%; in assay [6], 26.3%.

As for `COc1nn(-c2ccc(Oc3ccccc3)cc2)c(=O)o1`, the inhibition was determined as 92.7% in assay [1]; 13.3% in assay [2]; 66% in assay [3]; 87.1% in assay [4]; 72.9% in assay [5]. Further, the inhibition result in assay [6] was “inactive”.
